Results: ChEMBL document CHEMBL1201862, “PubChem BioAssay data set” (2004)
Activity calls are given as the source filed them. For most assays here, no stated cut-off is given here; in the data, actives have a measured EC50 and inactives only a lower limit.

Assays:
[1] = target: T1, Heat shock factor protein 1 (Mus musculus, UniProt P38532); assay: enhancement of HSF1-driven luciferase signal – cell-based, NIH3T3, luminescence, dose retest, confirmation (AID 435004); format: functional;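 further: stress induced by proteasome inhibitor MG132 added 30 min after compound; luciferase reporter driven by HSF1 response element in NIH3T3 cells; actives raise luminescence as potentiators of the MG132 stress response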
T1 sequence (P38532 whole entry): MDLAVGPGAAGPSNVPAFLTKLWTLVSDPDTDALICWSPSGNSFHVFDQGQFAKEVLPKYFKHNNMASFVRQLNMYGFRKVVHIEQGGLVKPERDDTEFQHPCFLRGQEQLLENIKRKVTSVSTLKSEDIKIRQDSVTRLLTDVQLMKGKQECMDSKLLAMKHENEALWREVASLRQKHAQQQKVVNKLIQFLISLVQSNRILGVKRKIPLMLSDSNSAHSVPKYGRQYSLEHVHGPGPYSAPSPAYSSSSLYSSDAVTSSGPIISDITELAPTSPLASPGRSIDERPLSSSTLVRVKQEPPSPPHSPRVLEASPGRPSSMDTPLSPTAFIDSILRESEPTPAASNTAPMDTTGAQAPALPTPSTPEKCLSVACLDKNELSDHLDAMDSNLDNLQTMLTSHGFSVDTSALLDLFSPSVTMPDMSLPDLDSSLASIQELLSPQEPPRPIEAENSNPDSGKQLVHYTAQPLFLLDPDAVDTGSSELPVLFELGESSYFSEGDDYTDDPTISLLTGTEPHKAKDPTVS

cells = format: functional
[2] = target: T2, Corticotropin-releasing factor receptor 2/Corticotropin-releasing factor-binding protein (Homo sapiens, UniProt P24387+Q13324); assay: Dose Response confirmation of uHTS hits for small molecule antagonists of the CRF-binding protein and CRF-R2 receptor complex.; format: functional; settings: read-out: IC50_Mean
T2 sequence (Q13324 whole entry): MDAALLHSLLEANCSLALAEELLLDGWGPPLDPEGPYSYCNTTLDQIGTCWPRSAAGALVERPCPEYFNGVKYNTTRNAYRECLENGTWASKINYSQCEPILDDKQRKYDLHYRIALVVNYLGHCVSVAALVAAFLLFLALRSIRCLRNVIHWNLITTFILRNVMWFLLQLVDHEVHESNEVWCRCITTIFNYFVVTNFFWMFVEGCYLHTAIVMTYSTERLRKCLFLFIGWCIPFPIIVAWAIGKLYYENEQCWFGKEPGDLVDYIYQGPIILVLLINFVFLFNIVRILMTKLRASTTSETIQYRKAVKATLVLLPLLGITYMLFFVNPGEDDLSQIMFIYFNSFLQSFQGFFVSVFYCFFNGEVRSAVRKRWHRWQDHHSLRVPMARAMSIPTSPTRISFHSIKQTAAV
T2 sequence (P24387 whole entry): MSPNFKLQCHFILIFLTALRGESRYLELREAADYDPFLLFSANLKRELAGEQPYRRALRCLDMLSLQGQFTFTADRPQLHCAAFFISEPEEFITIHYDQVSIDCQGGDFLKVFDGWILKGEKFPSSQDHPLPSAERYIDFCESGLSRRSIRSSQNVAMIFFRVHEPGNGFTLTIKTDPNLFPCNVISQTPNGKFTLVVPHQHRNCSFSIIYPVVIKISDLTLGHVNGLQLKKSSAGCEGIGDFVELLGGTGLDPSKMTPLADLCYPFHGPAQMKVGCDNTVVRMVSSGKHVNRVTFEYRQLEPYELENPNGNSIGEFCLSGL

[3] = target: T2, Corticotropin-releasing factor receptor 2/Corticotropin-releasing factor-binding protein; assay: activators of CRF receptor 2 with binding protein – uHTS hits, confirmation (AID 602473); format: functional; settings: read-out: EC50_Mean
Streptokinase A = target: T3, Streptokinase A (Streptococcus pyogenes serotype M1, UniProt P10520); assay: viability-normalized secreted streptokinase activity reduction – plasminogen activation absorbance, OD405, dose response (AID 1914); format: functional, Streptococcus pyogenes M1 GAS;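 further: secreted streptokinase activity via plasminogen activation per viability signal from cell pellet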
T3 sequence (P10520 whole entry): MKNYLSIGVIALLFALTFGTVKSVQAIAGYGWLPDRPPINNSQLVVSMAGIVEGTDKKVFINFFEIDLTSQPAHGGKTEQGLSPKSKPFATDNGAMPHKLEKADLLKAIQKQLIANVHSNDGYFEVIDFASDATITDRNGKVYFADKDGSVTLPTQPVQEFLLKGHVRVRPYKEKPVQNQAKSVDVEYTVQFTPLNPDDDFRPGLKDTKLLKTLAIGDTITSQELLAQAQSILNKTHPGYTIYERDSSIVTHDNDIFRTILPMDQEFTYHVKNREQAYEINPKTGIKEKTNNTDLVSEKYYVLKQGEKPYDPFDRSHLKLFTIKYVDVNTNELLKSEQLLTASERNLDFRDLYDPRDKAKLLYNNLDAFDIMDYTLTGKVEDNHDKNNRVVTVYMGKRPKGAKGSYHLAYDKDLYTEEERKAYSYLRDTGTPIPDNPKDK

[4] = Luminescence Cell-Based Dose Retest to Confirm Inhibitors of Cancer Stem Cells. [Related pubchem assays (depositor defined):AID2717, AID2721]; format: functional; settings: Homo sapiens
[5] = system: Streptococcus sp. 'group A'; assay: Streptococcus pyogenes SK(-)GAS viability under kanamycin – luminescence, BacTiterGlo, confirmation, counter-screen for streptokinase expression inhibitor project, dose response (AID 1900); format: functional, organism-based
Streptococcus = assay: GAS UMAA2166 growth inhibition – luminescence, BacTiterGlo, counter-screen for streptokinase expression inhibitor project, dose response (AID 1915); format: functional, organism-based;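 further: potency for reduction of bacterial viability or growth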
[6] = target: T4, Rac GTPase-activating protein 1 (Homo sapiens, UniProt Q9H0H5); assay: blockers of MgcRacGAP-driven Rac1 GTP hydrolysis – biochemical, ADP Hunter fluorescence, primary and confirmatory, confirmation (AID 624330); format: functional
T4 sequence (Q9H0H5 whole entry): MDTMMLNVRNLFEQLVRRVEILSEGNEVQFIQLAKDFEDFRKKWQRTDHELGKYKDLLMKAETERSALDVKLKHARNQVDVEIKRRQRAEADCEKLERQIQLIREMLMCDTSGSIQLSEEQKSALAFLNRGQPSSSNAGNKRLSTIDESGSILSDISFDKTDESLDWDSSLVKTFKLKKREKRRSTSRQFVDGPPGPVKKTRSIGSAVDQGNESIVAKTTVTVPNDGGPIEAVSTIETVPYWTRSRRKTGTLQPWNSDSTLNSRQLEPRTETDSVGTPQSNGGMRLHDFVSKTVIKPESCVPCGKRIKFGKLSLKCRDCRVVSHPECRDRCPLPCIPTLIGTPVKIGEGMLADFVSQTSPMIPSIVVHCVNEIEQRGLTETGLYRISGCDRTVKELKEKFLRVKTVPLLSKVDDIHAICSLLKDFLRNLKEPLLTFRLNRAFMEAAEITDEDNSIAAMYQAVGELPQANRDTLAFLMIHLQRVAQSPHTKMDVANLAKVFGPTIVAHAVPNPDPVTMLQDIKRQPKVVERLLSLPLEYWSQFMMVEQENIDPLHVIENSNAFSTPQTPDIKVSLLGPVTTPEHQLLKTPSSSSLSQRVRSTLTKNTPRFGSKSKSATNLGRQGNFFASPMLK

H4 = assay: Luminescence Cell-Based Dose Response HTS to Identify Activators of 5'UTR Stem-Loop Driven Prion Protein mRNA Translation in H4 Neuroglioblastoma Cells. [Related pubchem assays: 1829 (Project Summary), 1814 (Primary HTS)]; format: functional; settings: Homo sapiens
Protein RecA = target: T5, Protein RecA (Mycobacterium tuberculosis, UniProt P9WHJ3); assay: Fluorescence Cell-Free Homogeneous Dose Retest to Identify Inhibitors of RecA-Intein Splicing Activity. [Related pubchem assays (depositor defined):AID2097, AID2223, AID489010, AID492950]; format: functional
T5 sequence (P9WHJ3 whole entry): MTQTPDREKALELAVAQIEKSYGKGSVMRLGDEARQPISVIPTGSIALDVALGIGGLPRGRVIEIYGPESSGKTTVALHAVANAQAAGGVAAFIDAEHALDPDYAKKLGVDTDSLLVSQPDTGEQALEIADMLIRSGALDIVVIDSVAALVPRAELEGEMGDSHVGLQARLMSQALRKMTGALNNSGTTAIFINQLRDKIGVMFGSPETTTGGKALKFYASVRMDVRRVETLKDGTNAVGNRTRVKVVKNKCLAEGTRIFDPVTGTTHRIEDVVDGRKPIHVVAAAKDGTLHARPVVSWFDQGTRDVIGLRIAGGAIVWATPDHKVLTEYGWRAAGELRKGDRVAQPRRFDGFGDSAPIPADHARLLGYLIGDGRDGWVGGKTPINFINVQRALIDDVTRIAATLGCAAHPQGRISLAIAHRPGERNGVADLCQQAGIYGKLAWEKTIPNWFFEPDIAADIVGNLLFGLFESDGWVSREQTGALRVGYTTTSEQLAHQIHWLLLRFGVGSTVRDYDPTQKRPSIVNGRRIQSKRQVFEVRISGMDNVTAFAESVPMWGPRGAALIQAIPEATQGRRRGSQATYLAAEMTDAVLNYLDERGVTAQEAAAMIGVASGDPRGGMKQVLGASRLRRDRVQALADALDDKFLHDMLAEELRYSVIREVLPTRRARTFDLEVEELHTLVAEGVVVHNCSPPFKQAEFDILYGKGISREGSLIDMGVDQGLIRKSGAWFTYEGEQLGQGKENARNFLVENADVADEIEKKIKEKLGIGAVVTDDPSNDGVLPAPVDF

[7] = Luminescence Cell-Based Dose Response HTS to Identify Activators of Luciferase Translation or Activity in H4 […] Cells. [Related pubchem assays: 1829 (Project Summary), 1814 (Primary HTS)]; format: functional
[8] = target: T6, Replicative DNA helicase DnaB (Mycobacterium tuberculosis, UniProt P9WMR3); assay: DnaB intein splicing inhibitors, dose response, biochemical, cell-free fluorescence (AID 449749); format: functional
T6 sequence (P9WMR3 whole entry): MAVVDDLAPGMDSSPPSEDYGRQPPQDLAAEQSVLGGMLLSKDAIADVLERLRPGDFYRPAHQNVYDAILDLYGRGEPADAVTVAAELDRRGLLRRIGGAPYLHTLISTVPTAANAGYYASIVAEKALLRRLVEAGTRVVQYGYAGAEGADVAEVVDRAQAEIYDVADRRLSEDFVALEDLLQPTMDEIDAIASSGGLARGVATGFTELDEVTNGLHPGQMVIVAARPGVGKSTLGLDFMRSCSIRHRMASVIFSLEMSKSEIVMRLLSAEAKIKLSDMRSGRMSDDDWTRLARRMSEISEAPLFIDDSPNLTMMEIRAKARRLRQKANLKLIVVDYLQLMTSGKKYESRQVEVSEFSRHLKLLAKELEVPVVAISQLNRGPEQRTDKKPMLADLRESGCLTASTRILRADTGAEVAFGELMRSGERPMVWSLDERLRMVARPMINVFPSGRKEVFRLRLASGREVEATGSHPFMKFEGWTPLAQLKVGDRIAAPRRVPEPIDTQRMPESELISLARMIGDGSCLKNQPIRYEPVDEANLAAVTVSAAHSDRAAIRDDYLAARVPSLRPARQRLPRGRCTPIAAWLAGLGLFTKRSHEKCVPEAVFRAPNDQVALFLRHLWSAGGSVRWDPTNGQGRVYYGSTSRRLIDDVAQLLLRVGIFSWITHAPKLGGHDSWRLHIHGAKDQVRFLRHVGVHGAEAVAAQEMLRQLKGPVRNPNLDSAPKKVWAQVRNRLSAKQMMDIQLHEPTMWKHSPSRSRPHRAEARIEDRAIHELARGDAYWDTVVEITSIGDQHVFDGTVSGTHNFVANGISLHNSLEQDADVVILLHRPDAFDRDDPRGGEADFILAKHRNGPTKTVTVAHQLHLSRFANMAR

[9] = NIH3T3 cell viability loss – ATP luminescence, mouse fibroblasts, counter-screen, dose response (AID 2010); format: functional, cell-based;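 further: cells exposed to compound for about 90 hours before reading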
[10] = Trypanosoma cruzi growth suppression in host cells – NIH3T3 host cells, beta-gal luminescence, confirmation (AID 2044); format: functional, cell-based;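 further: intracellular parasites grown in NIH/3T3 mouse fibroblasts as host cells; luminescent beta-galactosidase reporter signal from transgenic T. cruzi replicating inside host cells; inhibitors lower the luminescence signal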

## O=c1[nH]c2ccccc2n1CCC1CCCCC1
[1]
  EC50: > 260 µM (inactive)

## O=C(CCSc1ccccn1)c1ccccc1
cells
  IC50: 23.2 µM (active)

## Cc1nn2c3ccccc3nc2n(C)c1=O
[2]
  IC50: > 47.1 µM (inactive)
[3]
  EC50: > 53 µM (inactive)

## O=C(Nc1ccc(Cl)c(Cl)c1)O/N=C/c1ccncc1
Streptokinase A
  EC50: > 150 µM (not active)
[4]
  AC50: 5.98 µM (active)
[5]
  EC50: 1.75 µM (active)
Streptococcus
  EC50: 36.5 µM (active)
cells
  IC50: 9.54 µM (active)

## COc1ccc(/C=C/C(=O)NCCCc2ccccc2)cc1
[1]
  EC50: > 260 µM (inactive)

## CCCCON1C(=O)c2cccc3cccc(c23)C1=O
[2]
  IC50: > 47.1 µM (inactive)
[3]
  EC50: > 53 µM (inactive)

## COc1ccc(CN2CC(=O)N(c3cccc(Cl)c3)C2=S)cc1OC
[2]
  IC50: > 47.1 µM (inactive)
[3]
  EC50: > 53 µM (inactive)

## CO/C(O)=C1\C(C)=NC(=S)NC1c1ccc(-c2cccc(Cl)c2)o1 (centres undefined)
[1]
  EC50: > 260 µM (inactive)

## O=C(NC1CCCCC1)NS(=O)(=O)c1ccc2c(c1)CCC2 [GLYHEXAMIDE]
[2]
  IC50: > 47.1 µM (inactive)
[3]
  EC50: > 53 µM (inactive)

## C=CCn1c(SCC(=O)NC2CCCC2)nc2scc(-c3ccco3)c2c1=O
[1]
  EC50: > 260 µM (inactive)

## Cc1cccc(N=C(S)N(CCN(C)C)C(C)c2cccnc2)c1 (centres undefined)
[1]
  EC50: > 260 µM (inactive)

## Cn1nnc(NC(=O)COc2ccc(C3CCCCC3)cc2)n1
cells
  IC50: 23.3 µM (active)

## CCOC(=O)Cn1c(C)c(Br)c(=O)c2cccc(C)c21
cells
  IC50: 11.2 µM (active)

## Cc1nc2scc(-c3ccc(Cl)cc3)c2c(=O)n1N
[1]
  EC50: > 260 µM (inactive)

## O=c1c(-c2ccc3c(c2)OCCO3)coc2cc(O)cc(O)c12
[1]
  EC50: 19.2 µM (active)

## COc1cc(/C=C2\C(=O)N(CCC#N)N=C2C)ccc1OCC(=O)Nc1ccccc1
[6]
  IC50: 144 µM (active)
H4
  EC50: 64.8 µM (active)
Protein RecA
  EC50: 2.79 µM (active)
[7]
  EC50: < 0.1 µM (active)
[8]
  AC50: 3.74 µM (active)

## Cc1nc2ccc(Br)cc2c(=O)n1Cc1cccs1
[1]
  EC50: > 260 µM (inactive)

## CC(C)N(Cc1nc(-c2ccc(Cl)cc2)no1)C(=O)CN(C)S(=O)(=O)c1ccc(Cl)cc1
[9]
  EC50: > 60 µM (not active)
[1]
  EC50: > 260 µM (inactive)
[10]
  EC50: 2.71 µM (active)

## Cc1cc(N(C)C)c(C#N)c(NCc2ccccc2)n1
[1]
  EC50: > 260 µM (inactive)

## Cc1cc(Cl)ccc1C(=O)C1CCCN(C(=O)c2cnsn2)C1 (centres undefined)
[1]
  EC50: > 260 µM (inactive)
